Experimental data from patent US3987189A, “Anti-inflammatory composition and method containing cyclic 2-furfural-acetals” (Henkel & Cie G.m.b.H., priority 1973, dated 1976).
Read-outs that look alike come from different tables or passages of the source.

Legend:
[1] = UV-spectrum, absorption maxima; assay type: physicochemical
Description: In addition, the absorption maxima of the test substances in the ultraviolet region are given in the following Table I. Since with some of the test substances the absorption maxima lie conveniently in the ultraviolet region producing erythema, which extends from 280 to 320 mμ these, besides their inflammation-preventing action as sunburn control substances, show themselves simultaneously as useful means for protection from the sun.

[2] = Orienting toxicity test, LD 50; settings: in vivo
Description: In the following experiments listed below the cyclic 2-furfural-acetals to be used according to the invention were tested for their anti-inflammatoryproperties. First an orienting experiment was carried out to determine their toxicity, in order to be able to determine the test dosages for the further experiments.

[3] = tested on: carrageenin induced edema of the rats paw; assay: Rat's paw test with carrageenin induced edema (amputation method); assay type: in vivo; settings: 30 minutes before carrageenin, paws weighed 3 hours after carrageenin, read-out: Rat's paw test with carrageenin induced edema, checking (% inhibition)
Description: As a determination of the suitability of the compounds for preventing the inflammation caused by sunburn, a variation of the rats paw test was used, namely the so-called amputation method was used, which is described by C. H. Winter in the Journal of Pharmacology and Experimental Therapeutics 141, p.369 (1963). In the experiments, Carrageenin is used as the substance causing inflammation.
While only the Carrageenin solution was administered to the control animals, the test animals were given the different test substances by injection or by administration per os in the amount given in Table I below, 30 minutes before its injection with the Carrageenin solution. The test animals were killed 3 hours after the injection of the carrageenin solution causing the inflammation, and the weight of the paws was determined. The inhibiting of the development of the edema of the rats paws after the subplantar injection of the compound checking inflammation was used as an index of the degree of activity and was expressed in % inhibition.
On the basis of general practice, the results of the rats paw test serve as a base for the evaluation of a compound as a sunburn control agent.

SMILES | UV-spectrum λ-max [1] [mμ] | UV-spectrum logε at λ-max [1] | LD50 [2] [mg/kg] | inhibition in vivo at 500 mg/kg ([3]; po, 500 mgm/kg p.o.) [%] | other results
O=[N+]([O-])c1ccc(C2OCCO2)o1 [Compound A, 2-(5'-Nitrofuryl-2')-1,3-dioxolane] | 302 | 4.02 | 810 | 16.2 | –
O=[N+]([O-])c1ccc(C2OCCCCO2)o1 [Compound B, 2-(5'-nitrofuryl-2')-1,3-dioxepane] | – | – | 1750 | 12.3 | –
CCCC1(C)COC(c2ccc([N+](=O)[O-])o2)OC1 (centres unmarked) [Compound C, 2-(5'-nitrofuryl-2')-5-methyl-5-propyl-1,3-dioxane] | 302 | 3.98 | 300 | – | inhibition in vivo at 250 mg/kg ([3]; po, 250 mgm/kg p.o.): 16.5%
CC1(C)OC(c2ccc([N+](=O)[O-])o2)OC1(C)C [Compound D, 2-(5'-nitrofuryl-2')-4,4,5,5-tetramethyl-1,3-dioxolane] | 303 | 4.01 | 810 | 16.5 | –
O=[N+]([O-])c1ccc(C2OC3CCCCC3O2)o1 (centres unmarked) [Compound E, 2-(5'-nitrofuryl-2')-4,5-tetramethylene-1,3-dioxolane] | 305 | 4.01 | 1000 | 17.7 | –
CC(C)C1OC(c2ccco2)OCC1(C)C (centres unmarked) [Compound F, 2-(furyl-2')-4-isopropyl-5,5-dimethyl-1,3-dioxane] | 300 | 2.35 | 300 | – | inhibition in vivo at 250 mg/kg ([3]; po, 250 mgm/kg p.o.): 48.4%
CC1OC(c2ccco2)OC1C (centres unmarked) [Compound G, 2-(furyl-2')-4,5-dimethyl-1,3-dioxolane] | 300 | 2.13 | 300 | – | inhibition in vivo at 250 mg/kg ([3]; po, 250 mgm/kg p.o.): 14.5%
Cc1ccc(C2OCC(C)(C)C(C(C)C)O2)o1 (centres unmarked) [Compound H, 2-(5'-methylfuryl-2')-4-isopropyl-5,5-dimethyl-1,3-dioxane] | 300 | 2.08 | 1000 | – | inhibition in vivo at 1000 mg/kg ([3]; po, 1000 mgm/kg p.o.): 50%
Cc1ccc(C2OC(C)C(C)O2)o1 (centres unmarked) [Compound J, 2-(5'-methylfuryl-2')-4,5-dimethyl-1,3-dioxolane] | 300 | 1.96 | 1000 | – | inhibition in vivo at 1000 mg/kg ([3]; po, 1000 mgm/kg p.o.): 48.4%
CC1OC(c2ccc([N+](=O)[O-])o2)OC(C)C1C (centres unmarked) [Compound K, 2-(5'-Nitrofuryl-2')-4,5,6-trimethyl-1,3-dioxane] | 303 | 3.76 | 690 | – | inhibition in vivo at 250 mg/kg ([3]; po, 250 mgm/kg p.o.): 30.8%
CC1CC(C)(C)OC(c2ccc([N+](=O)[O-])o2)O1 (centres unmarked) [Compound L, 2-(5'-nitrofuryl-2')-4,4,6-trimethyl-1,3-dioxane] | 304 | 4.01 | 1130 | 21.9 | –
CCCCCCCCCCCCC1COC(c2ccc([N+](=O)[O-])o2)O1 (centres unmarked) [Compound M, 2-(5'-nitrofuryl-2')-4-dodecyl-1,3-dioxolane] | – | – | 1000 | – | inhibition in vivo at 1000 mg/kg ([3]; ip, 1000 mgm/kg i.p.): 18.3%
CCCCCCCCCCCCCCC1COC(c2ccc([N+](=O)[O-])o2)O1 (centres unmarked) [Compound N, 2-(5'-nitrofuryl-2')-4-tetradecyl-1,3-dioxolane] | – | – | 1000 | – | inhibition in vivo at 1000 mg/kg ([3]; ip, 1000 mgm/kg i.p.): 10.5%
CCCCCCCCCCCCCCCCC1COC(c2ccc([N+](=O)[O-])o2)O1 (centres unmarked) [Compound O, 2-(5'-nitrofuryl-2')-4-hexadecyl-1,3-dioxolane] | – | – | 2500 | – | inhibition in vivo at 250 mg/kg ([3]; ip, 250 mgm/kg i.p.): 29.6%
CC(C)C1OC(c2ccc([N+](=O)[O-])o2)OCC1(C)C (centres unmarked) [Compound Q, 2-(5'-nitrofuryl-2')-4-isopropyl-5,5-dimethyl-1,3-dioxane] | 301 | 4.07 | 1750 | – | inhibition in vivo at 750 mg/kg ([3]; po, 750 mgm/kg p.o.): 34.1%
CC1COC(c2ccc([N+](=O)[O-])o2)O1 (centres unmarked) [Compound R, 2-(5'-nitrofuryl-2')-4-methyl-1,3-dioxolane] | 303 | 3.84 | 750 | – | inhibition in vivo at 50 mg/kg ([3]; ip, 50 mgm/kg i.p.): 36.6%
CCCCC1COC(c2ccc([N+](=O)[O-])o2)O1 (centres unmarked) [Compound S, 2-(5'-nitrofuryl-2')-4-n-butyl-1,3-dioxolane] | – | – | 810 | – | inhibition in vivo at 500 mg/kg ([3]; ip, 500 mgm/kg i.p.): 10.6%
CCCCCCC1COC(c2ccc([N+](=O)[O-])o2)O1 (centres unmarked) [Compound T, 2-(5'-nitrofuryl-2')-4-n-hexyl-1,3-dioxolane] | – | – | 1000 | – | inhibition in vivo at 1000 mg/kg ([3]; po, 1000 mgm/kg p.o.): 12.8%
CCCCCCCCC1COC(c2ccc([N+](=O)[O-])o2)O1 (centres unmarked) [Compound U, 2-(5'-nitrofuryl-2')-4-n-octyl-1,3-dioxolane] | – | – | 5000 | – | inhibition in vivo at 250 mg/kg ([3]; ip, 250 mgm/kg i.p.): 17%
CCCCCCCCCCC1COC(c2ccc([N+](=O)[O-])o2)O1 (centres unmarked) [Compound V, 2-(5'-nitrofuryl-2')-4-n-decyl-1,3-dioxolane] | – | – | 1000 | – | inhibition in vivo at 1000 mg/kg ([3]; po, 1000 mgm/kg p.o.): 18.3%
O=[N+]([O-])c1ccc(C2OCCCO2)o1 [Compound W, 2-(5'-nitrofuryl-2')-1,3-dioxane] | 303 | 3.79 | 750 | 16.9 | –
CC1CCOC(c2ccc([N+](=O)[O-])o2)O1 (centres unmarked) [Compound X, 2-(5'-nitrofuryl-2')-4-methyl-1,3-dioxane] | 303 | 3.87 | 750 | 12.1 | –
c1coc(C2OC3CCCCC3O2)c1 (centres unmarked) [Compound Y, 2-(Furyl-2')-4,5-tetramethylene-1,3-dioxolane] | – | – | 300 | – | inhibition in vivo at 250 mg/kg ([3]; po, 250 mgm/kg p.o.): 32.3%
